Consider 28 molecules from patent US7964607B2, “Pyrazolo[3,4-d]pyrimidine compounds” (Pfizer Inc., priority 2007, dated 2011).

For orientation: IC50 means the concentration that gives 50% inhibition.

In the first assay the target is T1, human recombinant PDE9 enzyme (Homo sapiens, UniProt O76083).
T1 construct: made in house; host or cells: SF-9 insect cells
T1 sequence (O76083 whole entry): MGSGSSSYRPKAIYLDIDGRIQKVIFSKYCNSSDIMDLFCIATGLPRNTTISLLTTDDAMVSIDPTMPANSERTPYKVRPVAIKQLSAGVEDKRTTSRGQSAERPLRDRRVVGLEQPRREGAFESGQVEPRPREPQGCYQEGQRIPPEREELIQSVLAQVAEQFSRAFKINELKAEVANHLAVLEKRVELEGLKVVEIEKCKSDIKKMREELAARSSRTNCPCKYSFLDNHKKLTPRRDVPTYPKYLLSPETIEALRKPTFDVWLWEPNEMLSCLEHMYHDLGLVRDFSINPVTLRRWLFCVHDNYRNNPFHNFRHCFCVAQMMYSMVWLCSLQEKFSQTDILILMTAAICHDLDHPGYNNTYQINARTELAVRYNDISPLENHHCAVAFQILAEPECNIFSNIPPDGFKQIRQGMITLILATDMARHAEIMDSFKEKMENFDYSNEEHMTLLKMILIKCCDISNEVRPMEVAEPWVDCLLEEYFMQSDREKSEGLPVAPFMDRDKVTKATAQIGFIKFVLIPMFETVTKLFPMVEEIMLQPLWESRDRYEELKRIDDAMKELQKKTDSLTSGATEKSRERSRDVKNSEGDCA
Description: Phosphodiesterase 9 (PDE9) inhibitory activity, Scintillation Proximity (SPA) assay.
Details: not given
Format: biochemical. The gist of the method:
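Scintillation proximity read-out of [3H]cGMP hydrolysis after 30 min at room temperature, with enzyme addition starting the reaction. The enzyme was human recombinant PDE9 expressed in SF-9 cells, titrated to keep substrate turnover at 20% or less. Compound wells held 2% DMSO final, and background was defined with excess PDE inhibitor.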
Background: In a scintillation proximity assay essentially only radioactivity close to the scintillant gives light.
As to `C[C@@H]1CN(Cc2ccccc2)C[C@H]1c1nc2c(cnn2C2CCOCC2)c(=O)[nH]1` [Example 61, 6-[(3S,4S)-1-benzyl-4-methylpyrrolidin-3-yl]-1-(tetrahydro-2H-pyran-4-yl)-1,5-dihydro-4H-pyrazolo[3,4-d]pyrimidin-4-one], the IC50 came out at 7.35 nM. Still for that read-out and setting: under `C[C@@H]1CN(Cc2cccc(F)c2)C[C@H]1c1nc2c(cnn2C2CCOCC2)c(=O)[nH]1` [Example 89, 6-[(3S,4S)-1-(3-fluorobenzyl)-4-methylpyrrolidin-3-yl]-1-(tetrahydro-2H-pyran-4-yl)-1,5-dihydro-4H-pyrazolo[3,4-d]pyrimidin-4-one] stands 1.7 nM.

The same assay, now with this note: human recombinant PDE9 from SF-9 cells; 50 nM [3H]cGMP; room temperature, 30 min; Examples 3-114; read-out: G5678A (U): IC50.
Take `Cc1cnc(CN2C[C@@H](C)[C@H](c3nc4c(cnn4C4CCCC4)c(=O)[nH]3)C2)cn1` [Example 38, 1-cyclopentyl-6-{(3S,4S)-4-methyl-1-[(5-methylpyrazin-2-yl)methyl]pyrrolidin-3-yl}-1,5-dihydro-4H-pyrazolo[3,4-d]pyrimidin-4-one]: the half-maximal inhibitory concentration (IC50) is 5.75 nM. Still for that read-out and setting: under `C[C@@H]1CN(Cc2ccccn2)C[C@H]1c1nc2c(cnn2C2CCCC2)c(=O)[nH]1` (racemic) [Example 26, 1-cyclopentyl-6-[(3,4-trans)-4-methyl-1-(pyridin-2-ylmethyl)pyrrolidin-3-yl]-1,5-dihydro-4H-pyrazolo[3,4-d]pyrimidin-4-one] stands 11.4 nM; under `C[C@@H]1CN(Cc2ccccc2)C[C@H]1c1nc2c(cnn2CC(F)(F)F)c(=O)[nH]1` (relative stereo) [Example 64], 873 nM; under `C[C@@H]1CN(Cc2cncnc2)C[C@H]1c1nc2c(cnn2C2CCCC2)c(=O)[nH]1` (racemic) [Example 14, 1-cyclopentyl-6-[(3,4-trans)-4-methyl-1-(pyrimidin-5-ylmethyl)pyrrolidin-3-yl]-1,5-dihydro-4H-pyrazolo[3,4-d]pyrimidin-4-one], 26 nM. On the same count and under the same terms, under `C[C@@H]1CN(c2ncccn2)C[C@H]1c1nc2c(cnn2C2CCCC2)c(=O)[nH]1` (racemic) [Example 5, 1-cyclopentyl-6-[(3,4-trans)-4-methyl-1-pyrimidin-2-ylpyrrolidin-3-yl]-1,5-dihydro-4H-pyrazolo[3,4-d]pyrimidin-4-one] stands 558 nM.

Take `COc1ccc(CN2C[C@@H](C)[C@H](c3nc4c(cnn4C4CCOCC4)c(=O)[nH]3)C2)cn1` [Example 76, 6-{(3S,4S)-1-[(6-methoxypyridin-3-yl)methyl]-4-methylpyrrolidin-3-yl}-1-(tetrahydro-2H-pyran-4-yl)-1,5-dihydro-4H-pyrazolo[3,4-d]pyrimidin-4-one]: the IC50 was found to be 3.5 nM.

On to `CCn1ncc2c(=O)[nH]c([C@@H]3CN(Cc4ccccc4)C[C@H]3C)nc21` (racemic) [Example 58, 6-[(3,4-trans)-1-benzyl-4-methylpyrrolidin-3-yl]-1-ethyl-1,5-dihydro-4H-pyrazolo[3,4-d]pyrimidin-4-one], for which the IC50 is 334 nM. The same measure, in the same setting: under `CC[C@@H]1CN(Cc2ccccc2)C[C@H]1c1nc2c(cnn2C(C)C)c(=O)[nH]1` (racemic) [Example 39, 6-[(3,4-trans)-1-benzyl-4-ethylpyrrolidin-3-yl]-1-isopropyl-1,5-dihydro-4H-pyrazolo[3,4-d]pyrimidin-4-one] stands 58.1 nM; under `C[C@@H]1CN(Cc2ccc(C(F)(F)F)cc2)C[C@H]1c1nc2c(cnn2C2CCOCC2)c(=O)[nH]1` [Example 91, 6-{(3S,4S)-4-methyl-1-[4-(trifluoromethyl)benzyl]pyrrolidin-3-yl}-1-(tetrahydro-2H-pyran-4-yl)-1,5-dihydro-4H-pyrazolo[3,4-d]pyrimidin-4-one], 6.69 nM; under `O=c1[nH]c([C@@H]2CN(Cc3ccccc3)C[C@H]2C(F)(F)F)nc2c1cnn2C1CCCC1` (racemic) [Example 35, 6-[(3,4-trans)-1-benzyl-4-(trifluoromethyl)pyrrolidin-3-yl]-1-cyclopentyl-1,5-dihydro-4H-pyrazolo[3,4-d]pyrimidin-4-one], 53.8 nM.

Regarding `CC(C)n1ncc2c(=O)[nH]c([C@@H]3CN(Cc4ccnc5ncccc45)C[C@H]3C)nc21` [Example 66], the 50% inhibitory concentration (IC50) came out at 18.1 nM. Still for that read-out and setting: for `CC[C@@H]1CN(C(=O)c2cnc3ccccc3n2)C[C@H]1c1nc2c(cnn2C2CCOCC2)c(=O)[nH]1` [Example 110, 6-[(3S,4S)-4-ethyl-1-(quinoxalin-2-ylcarbonyl)pyrrolidin-3-yl]-1-(tetrahydro-2H-pyran-4-yl)-1,5-dihydro-4H-pyrazolo[3,4-d]pyrimidin-4-one] the value was 2.59 nM.

Still in this assay, the particulars now being: human recombinant PDE9 from SF-9 cells; 50 nM [3H]cGMP; room temperature, 30 min; additional compounds Ex. 115-228; read-out: G5678A (U):IC50.
Turning to `C[C@@H]1CN(Cc2cc(F)cc(F)c2)C[C@H]1c1nc2c(cnn2C2CCCC2)c(=O)[nH]1` (racemic) [Example 227, 1-cyclopentyl-6-[(3,4-trans)-1-(3,5-difluorobenzyl)-4-methylpyrrolidin-3-yl]-1,5-dihydro-4H-pyrazolo[3,4-d]pyrimidin-4-one], the half-maximal inhibitory concentration (IC50) worked out at 7.42 nM.

`COc1ccc(CN2C[C@@H](C)[C@H](c3nc4c(cnn4C4CCCC4)c(=O)[nH]3)C2)c(F)c1` (racemic) [Example 129, 1-cyclopentyl-6-[(3,4-trans)-1-(2-fluoro-4-methoxybenzyl)-4-methylpyrrolidin-3-yl]-1,5-dihydro-4H-pyrazolo[3,4-d]pyrimidin-4-one]: the IC50 amounted to 71.8 nM.

Turning to `C[C@@H]1CN(Cc2ccc(Cl)cc2Cl)C[C@H]1c1nc2c(cnn2C2CCCC2)c(=O)[nH]1` (racemic) [Example 213, 1-cyclopentyl-6-[(3,4-trans)-1-(2,4-dichlorobenzyl)-4-methylpyrrolidin-3-yl]-1,5-dihydro-4H-pyrazolo[3,4-d]pyrimidin-4-one], the IC50 was 124 nM. For the molecule `CC(C)Oc1ccc(CN2C[C@@H](C)[C@H](c3nc4c(cnn4C4CCCC4)c(=O)[nH]3)C2)cc1` (racemic) [Example 188, 1-cyclopentyl-6-[(3,4-trans)-1-(4-isopropoxybenzyl)-4-methylpyrrolidin-3-yl]-1,5-dihydro-4H-pyrazolo[3,4-d]pyrimidin-4-one], the half-inhibitory concentration (IC50) came to 72.7 nM. Same read-out and setting: under `COc1ccc(F)cc1CN1C[C@@H](C)[C@H](c2nc3c(cnn3C3CCCC3)c(=O)[nH]2)C1` (racemic) [Example 128, 1-cyclopentyl-6-[(3,4-trans)-1-(5-fluoro-2-methoxybenzyl)-4-methylpyrrolidin-3-yl]-1,5-dihydro-4H-pyrazolo[3,4-d]pyrimidin-4-one] stands 70.9 nM. On the same count and under the same terms, for `COc1ccc(CN2C[C@@H](C)[C@H](c3nc4c(cnn4C4CCCC4)c(=O)[nH]3)C2)c(OC)c1` (racemic) [Example 206, 1-cyclopentyl-6-[(3,4-trans)-1-(2,4-dimethoxybenzyl)-4-methylpyrrolidin-3-yl]-1,5-dihydro-4H-pyrazolo[3,4-d]pyrimidin-4-one] the value was 68.4 nM. For `Cc1cc(CN2C[C@@H](C)[C@H](c3nc4c(cnn4C4CCCC4)c(=O)[nH]3)C2)ccn1` (racemic) [Example 116, 1-cyclopentyl-6-{(3,4-trans)-4-methyl-1-[(2-methylpyridin-4-yl)methyl]pyrrolidin-3-yl}-1,5-dihydro-4H-pyrazolo[3,4-d]pyrimidin-4-one], the half-maximal inhibitory concentration (IC50) was found to be 34 nM. The same measure, in the same setting: for `CCOc1ccccc1CN1C[C@@H](C)[C@H](c2nc3c(cnn3C3CCCC3)c(=O)[nH]2)C1` (racemic) [Example 139, 1-cyclopentyl-6-[(3,4-trans)-1-(2-ethoxybenzyl)-4-methylpyrrolidin-3-yl]-1,5-dihydro-4H-pyrazolo[3,4-d]pyrimidin-4-one] the value was 97.5 nM; for `Cc1cnc(CN2C[C@@H](C)[C@H](c3nc4c(cnn4C4CCCC4)c(=O)[nH]3)C2)cn1` (racemic) [Example 177, 1-cyclopentyl-6-{(3,4-trans)-4-methyl-1-[(5-methylpyrazin-2-yl)methyl]pyrrolidin-3-yl)-1,5-dihydro-4H-pyrazolo[3,4-d]pyrimidin-4-one], 42.2 nM; for `C[C@@H]1CN(Cc2nc3c(s2)CCCC3)C[C@H]1c1nc2c(cnn2C2CCCC2)c(=O)[nH]1` (racemic) [Example 190, 1-cyclopentyl-6-[(3,4-trans)-4-methyl-1-(4,5,6,7-tetrahydro-1,3-benzothiazol-2-ylmethyl)pyrrolidin-3-yl]-1,5-dihydro-4H-pyrazolo(3,4-d]pyrimidin-4-one], 55.4 nM. On the same count and under the same terms, for `C[C@@H]1CN(Cc2ccc(-n3cncn3)cc2)C[C@H]1c1nc2c(cnn2C2CCCC2)c(=O)[nH]1` (racemic) [Example 140, 1-cyclopentyl-6-{(3,4-trans)-4-methyl-1-[4-(1H-1,2,4-triazol-1-yl)benzyl]pyrrolidin-3-yl}-1,5-dihydro-4H-pyrazolo[3,4-d]pyrimidin-4-one] the value was 26.8 nM; for `Cc1ccc(CN2C[C@@H](C)[C@H](c3nc4c(cnn4C4CCCC4)c(=O)[nH]3)C2)cc1F` (racemic) [Example 130, 1-cyclopentyl-6-[(3,4-trans)-1-(3-fluoro-4-methylbenzyl)-4-methylpyrrolidin-3-yl]-1,5-dihydro-4H-pyrazolo[3,4-d]pyrimidin-4-one], 60 nM. On the same count and under the same terms, under `C[C@@H]1CN(Cc2cccc(OC(F)F)c2)C[C@H]1c1nc2c(cnn2C2CCCC2)c(=O)[nH]1` (racemic) [Example 183, 1-cyclopentyl-6-{(3,4-trans)-1-[3-(difluoromethoxy)benzyl]-4-methylpyrrolidin-3-yl}-1,5-dihydro-4H-pyrazolo[3,4-d]pyrimidin-4-one] stands 29.8 nM; under `C[C@@H]1CN(CCCc2ccccc2)C[C@H]1c1nc2c(cnn2C2CCCC2)c(=O)[nH]1` (racemic) [Example 201, 1-cyclopentyl-6-[(3,4-trans)-4-methyl-1-(3-phenylpropyl)pyrrolidin-3-yl]-1,5-dihydro-4H-pyrazolo[3,4-d]pyrimidin-4-one], 146 nM.
